Patent publication US20070111889A1, “6-(Aminocarbonyl-phenyl)triazolopyrimidines, methods for the production thereof, use thereof for controlling harmful fungi, and substances containing the same” (BASF Aktiengesellschaft, priority 2003, published 2007)

Legend:
Pyrenophora teres = experiment: Activity against net blotch of barley caused by Pyrenophora teres (protective spray, barley seedlings); format: in vivo, Pyrenophora [syn. Drechslera] teres; details: 63 ppm; barley cultivar Hanna; inoculated 24 h after spraying; assessed visually after 6 days; untreated plants 90% infected
Description: The active compounds were prepared as a stock solution with 0.25% by weight of active compound in acetone or DMSO. 1% by weight of the emulsifier Uniperol® EL (wetting agent having emulsifying and dispersing action based on ethoxylated alkylphenols) was added to this solution, and the mixture was diluted with water to the desired concentration. Leaves of pot-grown barley seedlings of the cultivar “Hanna” were sprayed to runoff point with an aqueous suspensiori having the concentration of active compound stated below. 24 hours after the spray coating had dried on, the test plants were inoculated with an aqueous spore suspension of Pyrenophora [syn. Drechslera] teres, the causative agent of net blotch. The test plants were subsequently placed in a greenhouse at temperatures of between 20 and 24° C. and at a relative atmospheric humidity of 95 to 100%. After 6 days, the extent of the development of the disease was determined visually in % of infection of the total leaf area.

Plasmopara viticola = experiment: Activity against Peronospora of vines caused by Plasmopara viticola (protective spray, potted vines); format: in vivo; details: 250 ppm; vines cultivar Riesling; inoculated the day after spraying; assessed visually; untreated plants 90% infected
Description: The active compounds were prepared as a stock solution with 0.25% by weight of active compound in acetone or DMSO. 1% by weight of the emulsifier Uniperol® EL (wetting agent having emulsifying and dispersing action based on ethoxylated alkylphenols) was added to this solution, and the mixture was diluted with water to the desired concentration.
Leaves of potted vines of the cultivar “Riesling” were sprayed to runoff point with an aqueous suspension having the concentration of active compounds stated below. The next day, the undersides of the leaves were inoculated with an aqueous zoospore suspension of Plasmopara viticola. The vines were then initially placed in a water-vapor-saturated chamber at 24° C. for 48 hours and then in a greenhouse at temperatures of between 20 and 30° C. for 5 days. After this time, the plants were again placed in a moist chamber for 16 hours to promote sporangiophore eruption. The extent of the development of the infection on the undersides of the leaves was then determined visually.

Structure (SMILES): CC1CCN(c2c(-c3c(F)cc(C(N)=O)cc3F)c(Cl)nc3ncnn23)CC1 [I-1, 5-chloro-6-(2,6-difluoro-4-aminocarbonylphenyl)-7-(4-methylpiperidin-1-yl)-[1,2,4]-triazolo[1,5-a]pyrimidine]
- infection (% of infection of the total leaf area) (Pyrenophora teres): about 3%
- infection on the undersides of the leaves (Plasmopara viticola): no infection
